# Results as given in ChEMBL document CHEMBL4507288 (2021).
# Assays:
# [1] = tested on: Tyrosine-protein kinase ABL1 (Homo sapiens), P00519 [T315I]; settings: Compound concentration 1000.0 nM
# [2] = target: Activin receptor type-2B (Homo sapiens) (UniProt Q13705); settings: Compound concentration 1000.0 nM
# [3] = target: Atypical kinase COQ8B, mitochondrial (Homo sapiens) (UniProt Q96D53); settings: Compound concentration 1000.0 nM
# [4] = target: Aurora kinase A (Homo sapiens) (UniProt O14965); settings: Compound concentration 1000.0 nM
# [5] = target: Serine/threonine-protein kinase B-raf (Homo sapiens) (UniProt P15056); settings: Compound concentration 1000.0 nM
# [6] = target: Tyrosine-protein kinase BTK (Homo sapiens) (UniProt Q06187); settings: Compound concentration 1000.0 nM
# [7] = target: Calcium/calmodulin-dependent protein kinase type 1 (Homo sapiens) (UniProt Q14012); settings: Compound concentration 1000.0 nM
# [8] = target: Calcium/calmodulin-dependent protein kinase type II subunit gamma (Homo sapiens) (UniProt Q13555); settings: Compound concentration 1000.0 nM
# [9] = target: Calcium/calmodulin-dependent protein kinase kinase 1 (Homo sapiens) (UniProt Q8N5S9); settings: Compound concentration 1000.0 nM
# [10] = target: Cyclin-dependent kinase 4 (Homo sapiens) (UniProt P11802); settings: Compound concentration 1000.0 nM
# [11] = target: Macrophage colony-stimulating factor 1 receptor (Homo sapiens) (UniProt P07333); settings: Compound concentration 1000.0 nM
# [12] = target: Casein kinase II subunit alpha' (Homo sapiens) (UniProt P19784); settings: Compound concentration 1000.0 nM
# [13] = tested on: Epidermal growth factor receptor (Homo sapiens), P00533 [UNDEFINED MUTATION]; settings: Compound concentration 1000.0 nM
# [14] = target: Ephrin type-B receptor 4 (Homo sapiens) (UniProt P54760); settings: Compound concentration 1000.0 nM
# [15] = target: Mitogen-activated protein kinase 15 (Homo sapiens) (UniProt Q8TD08); settings: Compound concentration 1000.0 nM
# [16] = tested on: Fibroblast growth factor receptor 3 (Homo sapiens), P22607 [G697C]; settings: Compound concentration 1000.0 nM
# [17] = tested on: Receptor-type tyrosine-protein kinase FLT3 (Homo sapiens), P36888 [UNDEFINED MUTATION]; settings: Compound concentration 1000.0 nM
# [18] = target: Vascular endothelial growth factor receptor 3 (Homo sapiens) (UniProt P35916); settings: Compound concentration 1000.0 nM
# [19] = target: G protein-coupled receptor kinase 3 (Homo sapiens) (UniProt P35626); settings: Compound concentration 1000.0 nM
# [20] = target: Homeodomain-interacting protein kinase 1 (Homo sapiens) (UniProt Q86Z02); settings: Compound concentration 1000.0 nM
# [21] = target: Mitogen-activated protein kinase kinase kinase kinase 1 (Homo sapiens) (UniProt Q92918); settings: Compound concentration 1000.0 nM
# [22] = target: Serine/threonine-protein kinase ICK (Homo sapiens) (UniProt Q9UPZ9); settings: Compound concentration 1000.0 nM
# [23] = target: Mitogen-activated protein kinase 9 (Homo sapiens) (UniProt P45984); settings: Compound concentration 1000.0 nM
# [24] = tested on: Mast/stem cell growth factor receptor Kit (Homo sapiens), P10721 [V559D,T670I]; settings: Compound concentration 1000.0 nM
# [25] = target: Tyrosine-protein kinase Mer (Homo sapiens) (UniProt Q12866); settings: Compound concentration 1000.0 nM
# [26] = target: Serine/threonine-protein kinase 4 (Homo sapiens) (UniProt Q13043); settings: Compound concentration 1000.0 nM
# [27] = target: Myosin-IIIa (Homo sapiens) (UniProt Q8NEV4); settings: Compound concentration 1000.0 nM
# [28] = target: Serine/threonine-protein kinase Nek2 (Homo sapiens) (UniProt P51955); settings: Compound concentration 1000.0 nM
# [29] = target: Serine/threonine-protein kinase Nek3 (Homo sapiens) (UniProt P51956); settings: Compound concentration 1000.0 nM
# [30] = target: Mitogen-activated protein kinase 11 (Homo sapiens) (UniProt Q15759); settings: Compound concentration 1000.0 nM
# [31] = target: Mitogen-activated protein kinase 13 (Homo sapiens) (UniProt O15264); settings: Compound concentration 1000.0 nM
# [32] = target: Platelet-derived growth factor receptor beta (Homo sapiens) (UniProt P09619); settings: Compound concentration 1000.0 nM
# [33] = target: Cyclin-dependent kinase 2 homolog (Plasmodium falciparum (isolate 3D7)) (UniProt P61075); settings: Compound concentration 1000.0 nM
# [34] = target: Phosphatidylinositol 4,5-bisphosphate 3-kinase catalytic subunit alpha isoform (Homo sapiens) (UniProt P42336); settings: Compound concentration 1000.0 nM
# [35] = target: Protein kinase C delta type (Homo sapiens) (UniProt Q05655); settings: Compound concentration 1000.0 nM
# [36] = target: Serine/threonine-protein kinase D1 (Homo sapiens) (UniProt Q15139); settings: Compound concentration 1000.0 nM
# [37] = target: Serine/threonine-protein kinase D2 (Homo sapiens) (UniProt Q9BZL6); settings: Compound concentration 1000.0 nM
# [38] = tested on: Proto-oncogene tyrosine-protein kinase receptor Ret (Homo sapiens), P07949 [M918T]; settings: Compound concentration 1000.0 nM
# [39] = target: Receptor-interacting serine/threonine-protein kinase 1 (Homo sapiens) (UniProt Q13546); settings: Compound concentration 1000.0 nM
# [40] = target: Serine/threonine-protein kinase SIK1 (Homo sapiens) (UniProt P57059); settings: Compound concentration 1000.0 nM
# [41] = target: NUAK family SNF1-like kinase 2 (Homo sapiens) (UniProt Q9H093); settings: Compound concentration 1000.0 nM
# [42] = target: Serine/threonine-protein kinase 36 (Homo sapiens) (UniProt Q9NRP7); settings: Compound concentration 1000.0 nM
# [43] = target: Tyrosine-protein kinase Yes (Homo sapiens) (UniProt P07947); settings: Compound concentration 1000.0 nM
# [44] = target: Mitogen-activated protein kinase kinase kinase 19 (Homo sapiens) (UniProt Q56UN5); settings: Compound concentration 1000.0 nM
# [45] = target: 5-hydroxytryptamine receptor 2A (Homo sapiens, UniProt P28223); test: GPCRScan assay: inhibition of 5-HT2A; design: radioligand conc. used [nm] 1.2 – 2.4, parental cells HEKT
# Fibroblast growth factor receptor 3 (Homo sapiens), P22607 [G697C], sequence (P22607 whole entry G697C): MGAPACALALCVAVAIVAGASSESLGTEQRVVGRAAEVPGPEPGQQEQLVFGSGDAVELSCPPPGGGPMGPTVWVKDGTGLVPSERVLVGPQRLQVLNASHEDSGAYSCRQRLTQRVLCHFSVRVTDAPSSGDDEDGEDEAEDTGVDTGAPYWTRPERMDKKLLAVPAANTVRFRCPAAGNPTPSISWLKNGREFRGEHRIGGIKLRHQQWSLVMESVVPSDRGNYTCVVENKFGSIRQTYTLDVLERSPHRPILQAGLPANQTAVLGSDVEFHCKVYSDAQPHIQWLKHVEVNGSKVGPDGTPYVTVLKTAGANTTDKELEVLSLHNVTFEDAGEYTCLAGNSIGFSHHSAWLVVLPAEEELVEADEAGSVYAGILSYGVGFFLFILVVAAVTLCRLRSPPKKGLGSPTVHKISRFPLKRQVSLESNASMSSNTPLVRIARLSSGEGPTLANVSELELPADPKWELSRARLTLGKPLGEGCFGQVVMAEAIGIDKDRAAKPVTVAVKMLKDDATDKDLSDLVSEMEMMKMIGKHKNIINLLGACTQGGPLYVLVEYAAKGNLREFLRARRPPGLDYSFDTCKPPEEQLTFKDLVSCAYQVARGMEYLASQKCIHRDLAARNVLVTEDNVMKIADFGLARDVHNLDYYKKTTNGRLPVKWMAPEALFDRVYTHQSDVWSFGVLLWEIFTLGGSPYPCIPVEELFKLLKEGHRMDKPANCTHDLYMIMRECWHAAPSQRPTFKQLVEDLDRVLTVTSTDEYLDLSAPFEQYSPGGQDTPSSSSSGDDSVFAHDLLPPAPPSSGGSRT
# Mitogen-activated protein kinase kinase kinase 19 (Homo sapiens), sequence (Q56UN5 whole entry): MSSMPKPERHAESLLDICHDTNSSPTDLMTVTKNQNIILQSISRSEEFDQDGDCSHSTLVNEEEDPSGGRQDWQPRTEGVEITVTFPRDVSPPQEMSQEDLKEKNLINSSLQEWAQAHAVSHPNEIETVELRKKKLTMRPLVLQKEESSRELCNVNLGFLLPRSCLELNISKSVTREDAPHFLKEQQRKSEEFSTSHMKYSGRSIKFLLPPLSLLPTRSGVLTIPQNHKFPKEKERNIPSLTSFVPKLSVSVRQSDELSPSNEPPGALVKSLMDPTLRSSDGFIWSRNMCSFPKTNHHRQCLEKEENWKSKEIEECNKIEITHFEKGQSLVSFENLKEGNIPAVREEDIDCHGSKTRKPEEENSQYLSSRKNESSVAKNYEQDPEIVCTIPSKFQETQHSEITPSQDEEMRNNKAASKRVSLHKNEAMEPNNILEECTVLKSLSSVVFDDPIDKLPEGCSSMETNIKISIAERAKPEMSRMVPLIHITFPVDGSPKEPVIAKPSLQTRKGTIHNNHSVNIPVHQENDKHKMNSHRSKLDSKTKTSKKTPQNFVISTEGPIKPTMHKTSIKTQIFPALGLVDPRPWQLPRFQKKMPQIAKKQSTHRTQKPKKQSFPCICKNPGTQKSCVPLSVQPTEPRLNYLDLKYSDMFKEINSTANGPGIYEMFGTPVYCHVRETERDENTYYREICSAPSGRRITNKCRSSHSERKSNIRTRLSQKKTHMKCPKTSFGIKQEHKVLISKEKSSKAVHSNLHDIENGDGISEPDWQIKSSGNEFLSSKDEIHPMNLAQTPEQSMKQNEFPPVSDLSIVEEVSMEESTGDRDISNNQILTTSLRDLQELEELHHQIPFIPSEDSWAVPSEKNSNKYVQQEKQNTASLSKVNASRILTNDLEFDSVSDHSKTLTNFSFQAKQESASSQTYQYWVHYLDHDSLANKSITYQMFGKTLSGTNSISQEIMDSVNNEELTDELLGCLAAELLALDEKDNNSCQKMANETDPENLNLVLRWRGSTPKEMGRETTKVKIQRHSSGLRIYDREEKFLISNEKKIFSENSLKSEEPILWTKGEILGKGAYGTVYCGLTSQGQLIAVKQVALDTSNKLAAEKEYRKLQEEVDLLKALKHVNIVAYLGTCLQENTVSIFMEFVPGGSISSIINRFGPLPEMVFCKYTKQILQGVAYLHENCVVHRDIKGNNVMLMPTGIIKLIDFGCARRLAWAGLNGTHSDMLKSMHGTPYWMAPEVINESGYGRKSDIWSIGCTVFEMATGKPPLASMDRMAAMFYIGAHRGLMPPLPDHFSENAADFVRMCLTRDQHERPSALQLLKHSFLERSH
# Calcium/calmodulin-dependent protein kinase type II subunit gamma (Homo sapiens), sequence (Q13555 whole entry): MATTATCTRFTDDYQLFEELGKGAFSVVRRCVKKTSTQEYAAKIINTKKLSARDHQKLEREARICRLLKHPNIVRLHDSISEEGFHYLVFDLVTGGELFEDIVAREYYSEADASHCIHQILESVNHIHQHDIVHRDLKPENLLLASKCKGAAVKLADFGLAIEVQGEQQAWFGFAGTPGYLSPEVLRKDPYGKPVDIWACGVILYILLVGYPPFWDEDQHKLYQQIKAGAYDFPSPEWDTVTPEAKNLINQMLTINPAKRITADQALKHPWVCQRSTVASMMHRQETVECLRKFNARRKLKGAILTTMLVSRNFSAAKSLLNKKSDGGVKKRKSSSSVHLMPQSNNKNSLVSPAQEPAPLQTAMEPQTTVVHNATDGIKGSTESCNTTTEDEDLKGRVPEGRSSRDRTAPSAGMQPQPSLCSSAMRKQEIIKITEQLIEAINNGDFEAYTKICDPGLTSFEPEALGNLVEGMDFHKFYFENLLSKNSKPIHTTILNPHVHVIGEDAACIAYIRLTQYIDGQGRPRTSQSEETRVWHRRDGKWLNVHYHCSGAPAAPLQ
# NUAK family SNF1-like kinase 2 (Homo sapiens), sequence (Q9H093 whole entry): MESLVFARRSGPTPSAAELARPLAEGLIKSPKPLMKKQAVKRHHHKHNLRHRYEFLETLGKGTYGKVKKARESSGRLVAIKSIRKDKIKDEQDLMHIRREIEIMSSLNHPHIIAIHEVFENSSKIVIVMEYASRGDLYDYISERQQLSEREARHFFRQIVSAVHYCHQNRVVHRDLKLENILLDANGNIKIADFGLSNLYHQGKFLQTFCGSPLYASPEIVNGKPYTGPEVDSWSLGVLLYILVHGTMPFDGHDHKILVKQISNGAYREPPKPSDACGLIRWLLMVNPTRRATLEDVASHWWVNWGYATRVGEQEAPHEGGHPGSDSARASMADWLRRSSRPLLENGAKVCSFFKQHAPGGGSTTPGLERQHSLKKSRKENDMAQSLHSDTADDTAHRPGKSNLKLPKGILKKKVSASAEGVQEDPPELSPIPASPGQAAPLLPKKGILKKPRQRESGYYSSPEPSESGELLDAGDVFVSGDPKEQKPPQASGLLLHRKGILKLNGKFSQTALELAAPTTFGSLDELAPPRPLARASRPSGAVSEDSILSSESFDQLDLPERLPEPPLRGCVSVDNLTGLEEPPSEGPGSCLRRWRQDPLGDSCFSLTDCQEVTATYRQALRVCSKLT
# Receptor-interacting serine/threonine-protein kinase 1 (Homo sapiens), sequence (Q13546 whole entry): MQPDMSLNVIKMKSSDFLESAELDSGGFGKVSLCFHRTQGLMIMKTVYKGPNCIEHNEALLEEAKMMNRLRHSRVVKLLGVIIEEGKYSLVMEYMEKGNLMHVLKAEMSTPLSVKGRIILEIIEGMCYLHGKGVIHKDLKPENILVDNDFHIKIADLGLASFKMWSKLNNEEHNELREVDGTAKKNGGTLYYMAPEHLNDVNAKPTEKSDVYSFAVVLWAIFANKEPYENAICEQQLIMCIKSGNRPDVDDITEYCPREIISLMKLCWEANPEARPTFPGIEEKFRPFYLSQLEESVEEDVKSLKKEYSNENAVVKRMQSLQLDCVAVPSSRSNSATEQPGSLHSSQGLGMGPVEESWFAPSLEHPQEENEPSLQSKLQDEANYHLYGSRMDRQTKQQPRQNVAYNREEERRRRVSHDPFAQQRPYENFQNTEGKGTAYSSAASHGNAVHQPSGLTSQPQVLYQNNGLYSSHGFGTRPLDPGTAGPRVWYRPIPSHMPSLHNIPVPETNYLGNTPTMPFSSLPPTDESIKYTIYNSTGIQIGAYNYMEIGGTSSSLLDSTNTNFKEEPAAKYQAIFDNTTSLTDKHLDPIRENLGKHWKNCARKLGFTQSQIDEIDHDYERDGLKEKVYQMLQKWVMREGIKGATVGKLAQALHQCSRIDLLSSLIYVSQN
# Mast/stem cell growth factor receptor Kit (Homo sapiens), P10721 [V559D,T670I], sequence (P10721 whole entry V559D/T670I): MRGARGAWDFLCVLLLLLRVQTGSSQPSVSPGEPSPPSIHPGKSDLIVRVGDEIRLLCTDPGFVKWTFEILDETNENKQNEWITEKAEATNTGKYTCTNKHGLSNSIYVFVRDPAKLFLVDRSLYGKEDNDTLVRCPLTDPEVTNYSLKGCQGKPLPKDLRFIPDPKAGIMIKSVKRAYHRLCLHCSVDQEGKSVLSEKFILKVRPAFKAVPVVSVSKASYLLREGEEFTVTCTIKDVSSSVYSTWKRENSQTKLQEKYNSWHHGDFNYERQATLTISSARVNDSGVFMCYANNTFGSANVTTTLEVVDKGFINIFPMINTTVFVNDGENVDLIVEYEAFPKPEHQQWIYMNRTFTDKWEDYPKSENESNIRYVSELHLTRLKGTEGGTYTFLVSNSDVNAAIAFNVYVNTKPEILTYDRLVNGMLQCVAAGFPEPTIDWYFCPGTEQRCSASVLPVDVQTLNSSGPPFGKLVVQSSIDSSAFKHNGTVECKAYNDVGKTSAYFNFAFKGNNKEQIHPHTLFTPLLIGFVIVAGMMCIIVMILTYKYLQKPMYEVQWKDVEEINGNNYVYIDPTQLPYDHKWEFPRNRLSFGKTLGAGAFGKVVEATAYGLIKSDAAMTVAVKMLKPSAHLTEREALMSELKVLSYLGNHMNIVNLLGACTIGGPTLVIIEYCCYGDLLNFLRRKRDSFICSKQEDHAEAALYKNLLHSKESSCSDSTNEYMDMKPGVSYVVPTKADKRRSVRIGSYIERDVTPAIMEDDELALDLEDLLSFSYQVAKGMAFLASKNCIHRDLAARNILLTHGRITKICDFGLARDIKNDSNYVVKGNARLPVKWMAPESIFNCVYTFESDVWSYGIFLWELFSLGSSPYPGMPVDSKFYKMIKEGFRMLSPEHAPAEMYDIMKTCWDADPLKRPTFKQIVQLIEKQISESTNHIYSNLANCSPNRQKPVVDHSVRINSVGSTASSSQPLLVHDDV
structure (smiles),measurement,setting,value
O=S(=O)(NC1CCC(c2cc(F)ccc2F)(S(=O)(=O)c2ccc(Cl)cc2)CC1)C(F)(F)F (stereo not given) [MRK-560],residual activity,[1],85%
same,residual activity,[2],95%
same,residual activity,[3],88%
same,residual activity,[4],100%
same,residual activity,[5],93%
same,residual activity,[6],100%
same,residual activity,[7],84%
same,residual activity,[8],100%
same,residual activity,[9],100%
same,residual activity,[10],81%
same,residual activity,[11],100%
same,residual activity,[12],99%
same,residual activity,[13],80%
same,residual activity,[14],100%
same,residual activity,[15],94%
same,residual activity,[16],100%
same,residual activity,[17],97%
same,residual activity,[18],100%
same,residual activity,[19],92%
same,residual activity,[20],100%
same,residual activity,[21],96%
same,residual activity,[22],85%
same,residual activity,[23],73%
same,residual activity,[24],100%
same,residual activity,[25],99%
same,residual activity,[26],100%
same,residual activity,[27],91%
same,residual activity,[28],98%
same,residual activity,[29],81%
same,residual activity,[30],94%
same,residual activity,[31],100%
same,residual activity,[32],100%
same,residual activity,[33],100%
same,residual activity,[34],100%
same,residual activity,[35],100%
same,residual activity,[36],100%
same,residual activity,[37],79%
same,residual activity,[38],92%
same,residual activity,[39],100%
same,residual activity,[40],100%
same,residual activity,[41],100%
same,residual activity,[42],100%
same,residual activity,[43],89%
same,residual activity,[44],84%
CC(C)(C)OC(=O)N1CCCC1CNC1CCC(c2cc(F)ccc2F)(S(=O)(=O)c2ccc(Cl)cc2)CC1 (stereo not given) [GSI-NC],Ki,[45],478 nM
